Data taken from paper PMC3677530 (Analytical biochemistry, 2013).
Values joined by “and” are separate entries in the source; they are usually repeats but may differ in a detail not shown here. Equal values may be shown once. Read-outs that look alike come from different tables or passages of the source.

Assays:
[1] = biological target: human cannabinoid CB1 receptor (Homo sapiens, UniProt P21554); assay: cell-based; assay type: cell-based; settings: for CB2/CB1: ratio of the IC50 values CB2/CB1, plate-based assay
Sequence of human cannabinoid CB1 receptor (P21554 whole entry): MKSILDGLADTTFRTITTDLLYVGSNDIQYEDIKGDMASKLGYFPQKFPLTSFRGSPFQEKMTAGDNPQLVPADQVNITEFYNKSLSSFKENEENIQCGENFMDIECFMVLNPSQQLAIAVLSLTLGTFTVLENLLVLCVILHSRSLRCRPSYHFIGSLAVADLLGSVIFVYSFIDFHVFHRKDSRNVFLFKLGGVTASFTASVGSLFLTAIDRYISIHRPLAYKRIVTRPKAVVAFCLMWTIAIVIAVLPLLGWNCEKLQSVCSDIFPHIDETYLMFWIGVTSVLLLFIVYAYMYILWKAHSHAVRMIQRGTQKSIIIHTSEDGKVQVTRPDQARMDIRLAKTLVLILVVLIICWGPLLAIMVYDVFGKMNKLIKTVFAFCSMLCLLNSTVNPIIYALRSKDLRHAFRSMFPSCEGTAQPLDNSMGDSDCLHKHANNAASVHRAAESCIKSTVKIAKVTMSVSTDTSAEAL

[2] = biological target: human cannabinoid CB2 receptor (Homo sapiens, UniProt P34972); assay: cell-based; settings: for inhibition of internalization (CB2): 2 nM [3H]-CP55,940, CHO-CB2
Sequence of human cannabinoid CB2 receptor (P34972 whole entry): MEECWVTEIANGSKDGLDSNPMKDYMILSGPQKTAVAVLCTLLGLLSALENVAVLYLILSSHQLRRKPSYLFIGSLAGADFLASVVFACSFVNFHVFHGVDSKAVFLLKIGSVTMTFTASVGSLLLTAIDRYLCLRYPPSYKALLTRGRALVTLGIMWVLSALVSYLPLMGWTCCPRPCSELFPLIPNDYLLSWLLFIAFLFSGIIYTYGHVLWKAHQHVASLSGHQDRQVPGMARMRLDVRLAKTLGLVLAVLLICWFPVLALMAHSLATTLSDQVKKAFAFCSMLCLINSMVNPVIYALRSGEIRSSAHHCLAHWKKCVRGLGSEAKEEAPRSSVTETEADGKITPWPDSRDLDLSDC

[3] = system: CB2 receptor; settings: ref Tam et al [25]; cited from earlier work

Row | SMILES | inhibition of internalization (CB1) [1] [%] | CB2/CB1 [1] | inhibition of internalization (CB2) [2] [%] | IC50 ([1]; read-out: CB1 (IC50 ±SD)) [nM] | also measured
1 | CCCCCn1cc(C(=O)C23CC4CC(CC(C4)C2)C3)c2ccccc21 [AB001, 3-[(adamantan-1-yl)carbonyl]-1-pentylindole] | 32.6 | 58 | 30.3 |  | IC50 [1]: 29.5 ± 2.23 nM
2 | Cc1c(C(=O)NN2CCCCC2)nn(-c2ccc(Cl)cc2Cl)c1-c1ccc(I)cc1 [AM251] |  |  | 60.5 |  | 
3 | Cc1c(C(=O)NN2CCOCC2)nn(-c2ccc(Cl)cc2Cl)c1-c1ccc(I)cc1 [AM281] |  |  | 44.2 | 9.91 ± 0.99 | 
4 | COc1ccc(C(=O)c2c(C)n(CCN3CCOCC3)c3cc(I)ccc23)cc1 [AM630] |  |  | 51.4 |  | 
5 | Cc1c(C(=O)NN2CCS(=O)(=O)CC2)nn(-c2ccc(Cl)cc2Cl)c1-c1ccc(C#CCCC#N)cc1 [AM6545] | 43.7 | 309 | 50.7 | 4.2 ± 0.24 | 
6 | C[C@@]12CC[C@@H]3[C@@](CC[C@H]4[C@@]3(C)CCC[C@@]4(C)C(=O)O)(CC1=O)C2 [Isosteviol] |  | 0.02 | 56.8 |  | IC50 [1]: 37.5 ± 6.9 nM; inhibition of internalization (CB1) ([1]; 10 nM [3H]-Win 55,212-2, CHO-CB1): 71.1%; IC50 [2]: 0.9 nM and 0.89 nM; selectivity for CB2 (over CB1) ([2]; plate-based assay): ~ 40 times
7 | CC(C)[C@H](N=C(NS(=O)(=O)c1ccc(Cl)cc1)N1C[C@H](c2ccccc2)C(c2ccc(Cl)cc2)=N1)C(N)=O [JD5037-030] | 64.4 | 810 | 52.1 | 0.2 ± 0.05 | binding affinity for CB2 [3]: 245 nM
8 | Cc1c(C(=O)NN2CCCCC2)nn(-c2ccc(Cl)cc2Cl)c1-c1ccc(Cl)cc1 [Rimonabant] |  |  | 37.7 |  | 
9 | CCCCCn1cc(C(=O)C2C(C)(C)C2(C)C)c2ccccc21 [UR144] | 29.6 | 3 | 38.1 | 27.2 ± 6.6 | selectivity for CB1 (over CB2) ([1]; plate-based assay): did not observe any selectivity
